Patent US8163754B2, “Purine derivatives for use as adenosine A-2A receptor agonists” (Novartis AG, priority 2004, dated 2012)
Where a name gives a salt, the structure may show the parent alone.

Biological target: adenosine A2A receptor (Homo sapiens, UniProt P29274)
Assay: A2A receptor agonist assay, method of Murphree et al, Molecular Pharmacology 61, 455-462 (2002)
Type: binding
Conditions: method of L. J. Murphree et al
Text: Compounds of formula I and their pharmaceutically acceptable salts are useful as pharmaceuticals. In particular, they activate the adenosine A2A receptor, i.e. they act as A2A receptor agonists.

Sequence of adenosine A2A receptor (P29274 whole entry): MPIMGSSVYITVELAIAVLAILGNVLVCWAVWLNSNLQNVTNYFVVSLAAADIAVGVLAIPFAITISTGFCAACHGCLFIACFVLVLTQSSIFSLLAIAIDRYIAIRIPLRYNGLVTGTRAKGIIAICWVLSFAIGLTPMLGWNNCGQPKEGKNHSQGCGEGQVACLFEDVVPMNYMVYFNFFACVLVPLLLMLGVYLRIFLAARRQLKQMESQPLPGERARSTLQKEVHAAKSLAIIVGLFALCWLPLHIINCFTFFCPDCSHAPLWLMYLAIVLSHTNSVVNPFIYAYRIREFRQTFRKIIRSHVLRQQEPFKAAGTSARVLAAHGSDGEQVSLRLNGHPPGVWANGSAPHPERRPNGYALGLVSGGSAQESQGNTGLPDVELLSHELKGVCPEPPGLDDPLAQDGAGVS

SMILES | Ki
CCC(=O)N[C@H]1C[C@@H](n2cnc3c(NCC(c4ccccc4)c4ccccc4)nc(C(=O)NCCNC(=O)NC4CCN(c5ccccn5)CC4)nc32)[C@H](O)[C@@H]1O [Example 38, 9-((1R,2S,3R,4S)-2,3-Dihydroxy-4-propionylamino-cyclopentyl)-6-(2,2-diphenyl-ethylamino)-9H-purine-2-carboxylic acid {2-[3-(3,4,5,6-tetrahydro-2H-[1,2]bipyridinyl-4-yl)ureido]-ethyl}-amide] | 2 nM
CCC(=O)N[C@H]1C[C@@H](n2cnc3c(NCC(c4ccccc4)c4ccccc4)nc(C(=O)NCCNC(=O)N[C@H]4CCN(c5ccccn5)C4)nc32)[C@H](O)[C@@H]1O [Example 47, 9-((1R,2S,3R,4S)-2,3-Dihydroxy-4-propionylamino-cyclopentyl)-6-(2,2-diphenyl-ethylamino)-9H-purine-2-carboxylic acid {2-[3-((S)-1-pyridin-2-yl-pyrrolidin-3-yl)-ureido]-ethyl}-amide trifluoroacetate] | 2 nM
CCC(=O)N[C@H]1C[C@@H](n2cnc3c(NCCC(c4ccccc4)c4ccccc4)nc(NCCc4cn(CC)cn4)nc32)[C@H](O)[C@@H]1O [Example 61, N-((1S,2R,3S,4R)-4-{6-(3,3-diphenyl-propyl-amino)-2-[2-(1-ethyl-1H-imidazol-4-yl)-ethylamino]-purin-9-yl-2,3-dihydroxy-cyclopentyl}-propionamide trifluoroacetate] | 9 nM
CCC(=O)N[C@H]1C[C@@H](n2cnc3c(N)nc(NCCc4ccccc4)nc32)[C@H](O)[C@@H]1O [Example 2, N-[(1S,2R,3S,4R)-4-(6-Amino-2-phenethylamino-purin-9-yl)-2,3-dihydroxy-cvclcpentyl]-propionamide trifluoroacetate] | 18 nM

The remaining lines, values ahead:

Ki | SMILES
52 nM | NC1CCN(c2nc(NCC(c3ccccc3)c3ccccc3)c3ncn(C4CC(NC(=O)C5CCC5)C(O)C4O)c3n2)C1 [Example 33, Cyclobutanecarboxylic acid {(1S,2R,3S,4R)-4-[2-((R)-3-amino-pyrrolidin-1-yl)-6-(2,2-diphenyl-ethylamino-3)-purin-9-yl]-2,3-dihydroxy-cyclopentyl}-amide]
3 nM | CCC(=O)N[C@H]1C[C@@H](n2cnc3c(NCC(c4ccccc4)c4ccccc4)nc(N4CC[C@@H](NC(=O)N[C@@H]5CCNC5)C4)nc32)[C@H](O)[C@@H]1O [Example 39, N-((1S,2R,3S,4R)-4-{6-(2,2-Diphenyl-ethylamino)-2-[(R)-3-((R)-3-pyrrolidin-3-ylureido)-pyrrolidin-1-yl]-purin-9-yl}-2,3-dihydroxy-cyclopentyl)-propionamide trifluoroacetate]
8 nM | CCCCC#Cc1nc(NCC(c2ccccc2)c2ccccc2)c2ncn([C@@H]3C[C@H](NC(=O)CC)[C@@H](O)[C@H]3O)c2n1 [Example 6, N-{(1S,2R,3S,4R)-4-[6-(2,2-Diphenyl-ethylamino)-2-hex-1-ynyl-purin-9-yl]-2,3-dihydroxy-cyclopentyl}-propionamide]
